In brackets after ≈: the same amount, converted by molar mass. Like-named read-outs stand apart in the source and are kept apart here.
Tests used:
[1] = Solubility of anti-tuberculosis compounds in PBS; format: physicochemical; details: aqueous buffer
[2] = In vivo drug release: drug concentration in blood plasma after subcutaneous implants; set-up: species or system Wistar Han rat; details: rat, three compressed implants subcutaneous; for concentration at 9 days / concentration at 16 days / concentration at 30 days / concentration at 44 days / concentration at 58 days / concentration at 0.167 days / concentration at 0.25 days / concentration at 1 day / concentration at 2 days / concentration at 0.083 days: Wistar Han, plasma, sc; for concentration at 9 days / concentration at 16 days / concentration at 30 days / concentration at 44 days / concentration at 0.167 days / concentration at 0.25 days / concentration at 1 day / concentration at 2 days: 60 mg/animal; for concentration at 58 days / concentration at 0.083 days: 60 mg
Excerpt: For each implantation, a Wistar Han rat was anesthetized using isoflurane to effect prior to subcutaneous dose administration. Using a trocar needle, three implants from each formulation example above were placed subcutaneously in the intrascapular region of a rat. Three animals were used for each formulation. Animals were monitored until recovered. At indicated time points, samples of blood were obtained from anesthetized animals (using isoflurane) and processed to plasma for determination of drug concentration by LC/MS. Results are shown in the below table (Table 4).

[3] = In vitro drug release from compressed implants; format: physicochemical; details: compressed implant 80wt % drug, PBS with 0.2 or 5wt % SDS, 37° C., 50 rpm
Protocol: The in vitro release rate of the drug was determined by incubating individual implants in a glass vial with phosphate buffered saline (PBS) containing 0.2 or 5wt % sodium dodecyl sulfate (SDS) at 37° C., and 50 rpm shaking in an Innova 42 incubator. The volume of media was sufficient to maintain sink conditions. Sink conditions are defined as the drug concentration maintained at or below ⅓ of the maximum solubility. Samples were removed at selected time points, and centrifuged at 20,800×g for 8 min. The supernatant was analyzed by HPLC.

[4] = dissolution media PBS, 37° C., read-out: Solubility at 37° C.
[5] = in phosphate buffered saline (PBS), read-out: aqueous solubility

With `COc1nc2ccc(Br)cc2cc1[C@@H](c1ccccc1)[C@@](O)(CCN(C)C)c1cccc2ccccc12` [bedaquiline] the solubility [1, 4] was 129 µg/mL (≈ 232 µM), the solubility [1, 5] was less than 200 µg/mL and the “Drug concentration in blood plasma Avg.” value ([2]; 0.083 days) was “BLQ”. The “Drug concentration in blood plasma Avg.” value ([2]; 0.167 days) was “BLQ”, the “Drug concentration in blood plasma Avg.” value ([2]; 0.25 days) was “BLQ” and the “Drug concentration in blood plasma Avg.” value ([2]; 1 day) was “BLQ”. For the same molecule, the “Drug concentration in blood plasma Avg.” value ([2]; 2 days) was “BLQ”, the concentration at 9 days [2] was 81 nM and the concentration at 16 days [2] was 63.6 nM. For the same molecule, the concentration at 30 days [2] was 51.7 nM, the concentration at 44 days [2] was 70.3 nM and the concentration at 58 days [2] was 60.2 nM. The “Cumulative in vitro drug release Avg.” value ([3]; 1 day) was 10.9%, the “Cumulative in vitro drug release Avg.” value ([3]; 11 days) was 41.4% and the “Cumulative in vitro drug release Avg.” value ([3]; 20 days) was 57.2%.
In the case of `C[C@]1(COc2ccc(N3CCC(Oc4ccc(OC(F)(F)F)cc4)CC3)cc2)Cn2cc([N+](=O)[O-])nc2O1` [delamanid], the “Cumulative in vitro drug release Avg.” value ([3]; 1 day) is reported as 20.3%, the “Cumulative in vitro drug release Avg.” value ([3]; 11 days) is reported as 26.8% and the “Cumulative in vitro drug release Avg.” value ([3]; 20 days) is reported as 38.3%.
Work on `CO[C@H]1/C=C/O[C@@]2(C)Oc3c(C)c(O)c4c(c3C2=O)C2=NC3(CCN(CC(C)C)CC3)NC2=C(NC(=O)/C(C)=C\C=C\[C@H](C)[C@H](O)[C@@H](C)[C@@H](O)[C@@H](C)[C@H](OC(C)=O)[C@@H]1C)C4=O` [rifabutin] yielded a solubility [1, 4] of 101 µg/mL (≈ 119 µM), a solubility [1, 5] of less than 200 µg/mL and a concentration at 0.167 days ([2]; 0.167 days) of 164 nM. It also gave a concentration at 0.25 days ([2]; 0.25 days) of 244 nM, a concentration at 1 day ([2]; 1 day) of 209 nM and a concentration at 2 days ([2]; 2 days) of 182 nM. It also gave a concentration at 9 days [2] of 119 nM, a concentration at 16 days [2] of 75.9 nM and a concentration at 30 days [2] of 69.3 nM. For the same molecule, the concentration at 44 days [2] was 42.3 nM, the concentration at 0.083 days ([2]; 0.083 days) was 81.9 nM and the concentration at 58 days [2] was 38.3 nM. The “Cumulative in vitro drug release Avg.” value ([3]; 1 day) was 40.6% and the “Cumulative in vitro drug release Avg.” value ([3]; 11 days) was 107.7%.
In the case of `CO[C@H]1/C=C/O[C@@]2(C)Oc3c(C)c(O)c4c(O)c(c(/C=N/N5CCN(C6CCCC6)CC5)c(O)c4c3C2=O)NC(=O)/C(C)=C\C=C\[C@H](C)[C@H](O)[C@@H](C)[C@@H](O)[C@@H](C)[C@H](OC(C)=O)[C@@H]1C` [rifapentine], the solubility [1, 4] is reported as 134 µg/mL (≈ 153 µM), the solubility [1, 5] is reported as less than 200 µg/mL and the concentration at 0.167 days ([2]; 0.167 days) is reported as 803 nM. For the same molecule, the concentration at 0.25 days ([2]; 0.25 days) was 1250 nM, the concentration at 1 day ([2]; 1 day) was 3530 nM and the concentration at 2 days ([2]; 2 days) was 5210 nM. It also gave a concentration at 9 days [2] of 5980 nM, a concentration at 16 days [2] of 2260 nM and a concentration at 30 days [2] of 1010 nM. For the same molecule, the concentration at 44 days [2] was 1460 nM, the concentration at 0.083 days ([2]; 0.083 days) was 630 nM and the concentration at 58 days [2] was 477 nM.

From patent US20200179273A1, “LONG-ACTION IMPLANT FOR TREATMENT OF INFECTIOUS DISEASES” (Merck Sharp & Dohme Corp., priority 2017, published 2020)
